# Measured values reported in ChEMBL document CHEMBL4507268 (2021).
# What was measured:
# [1] = biological target: D(1A) dopamine receptor (Homo sapiens) (UniProt P21728); details: Compound concentration 10.0 uM
# [2] = biological target: Sigma intracellular receptor 2 (Homo sapiens, UniProt Q5BJF2); assay: GPCRScan assay: inhibition of Sigma 2; parameters: radioligand conc. used [nm] 5.0, parental cells HEKT
# [3] = biological target: Focal adhesion kinase 1 (Homo sapiens) (UniProt Q05397); details: Compound concentration 1.0 uM
# [4] = biological target: Serine/threonine-protein kinase WNK3 (Homo sapiens) (UniProt Q9BYP7); details: Compound concentration 1.0 uM
# Sequence of Serine/threonine-protein kinase WNK3 (Homo sapiens) (Q9BYP7 whole entry): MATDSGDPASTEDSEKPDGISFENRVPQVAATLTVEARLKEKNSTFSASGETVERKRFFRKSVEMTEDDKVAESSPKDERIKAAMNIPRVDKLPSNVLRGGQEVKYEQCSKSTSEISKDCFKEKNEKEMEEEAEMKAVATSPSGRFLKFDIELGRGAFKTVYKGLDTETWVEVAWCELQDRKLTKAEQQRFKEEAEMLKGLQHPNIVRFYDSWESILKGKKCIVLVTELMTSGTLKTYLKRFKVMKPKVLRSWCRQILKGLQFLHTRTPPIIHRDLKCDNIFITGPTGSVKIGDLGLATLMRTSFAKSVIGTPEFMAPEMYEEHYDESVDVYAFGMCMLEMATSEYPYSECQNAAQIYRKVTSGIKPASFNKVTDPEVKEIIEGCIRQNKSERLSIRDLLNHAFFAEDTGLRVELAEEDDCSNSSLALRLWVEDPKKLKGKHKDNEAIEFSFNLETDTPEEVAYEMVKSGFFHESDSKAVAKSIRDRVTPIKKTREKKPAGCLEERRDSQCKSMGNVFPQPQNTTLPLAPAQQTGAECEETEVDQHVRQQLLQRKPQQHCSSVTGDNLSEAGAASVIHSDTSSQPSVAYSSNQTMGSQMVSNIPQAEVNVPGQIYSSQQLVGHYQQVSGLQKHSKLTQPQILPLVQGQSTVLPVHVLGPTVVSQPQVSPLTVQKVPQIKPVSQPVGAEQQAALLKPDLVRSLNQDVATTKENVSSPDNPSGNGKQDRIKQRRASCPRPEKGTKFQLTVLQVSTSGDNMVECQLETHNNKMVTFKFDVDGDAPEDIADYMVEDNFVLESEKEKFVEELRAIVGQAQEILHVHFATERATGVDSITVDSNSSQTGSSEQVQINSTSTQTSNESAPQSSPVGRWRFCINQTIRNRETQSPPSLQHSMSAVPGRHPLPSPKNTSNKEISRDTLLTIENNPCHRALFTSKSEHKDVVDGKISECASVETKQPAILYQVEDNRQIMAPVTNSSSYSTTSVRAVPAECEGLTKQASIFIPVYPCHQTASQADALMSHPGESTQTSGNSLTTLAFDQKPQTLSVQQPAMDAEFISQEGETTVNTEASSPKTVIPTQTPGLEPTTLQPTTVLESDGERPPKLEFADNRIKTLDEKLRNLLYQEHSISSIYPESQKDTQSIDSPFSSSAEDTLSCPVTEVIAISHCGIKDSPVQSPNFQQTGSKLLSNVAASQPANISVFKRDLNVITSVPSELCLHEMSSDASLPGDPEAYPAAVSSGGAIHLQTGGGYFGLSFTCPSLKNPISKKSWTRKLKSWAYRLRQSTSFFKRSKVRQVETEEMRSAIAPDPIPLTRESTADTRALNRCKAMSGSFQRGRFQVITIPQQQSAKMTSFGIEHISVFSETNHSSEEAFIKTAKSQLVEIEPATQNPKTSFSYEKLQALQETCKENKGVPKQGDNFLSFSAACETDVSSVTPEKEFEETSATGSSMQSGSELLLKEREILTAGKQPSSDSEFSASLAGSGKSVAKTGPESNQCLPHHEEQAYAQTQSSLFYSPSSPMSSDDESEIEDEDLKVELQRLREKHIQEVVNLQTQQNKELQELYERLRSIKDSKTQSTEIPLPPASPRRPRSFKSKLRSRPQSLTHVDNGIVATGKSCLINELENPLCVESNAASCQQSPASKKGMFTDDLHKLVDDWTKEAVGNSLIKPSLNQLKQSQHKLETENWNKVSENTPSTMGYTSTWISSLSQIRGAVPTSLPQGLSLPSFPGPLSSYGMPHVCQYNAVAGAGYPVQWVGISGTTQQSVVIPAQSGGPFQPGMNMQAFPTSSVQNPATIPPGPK
# [5] = biological target: T1, MAP/microtubule affinity-regulating kinase 4 (Homo sapiens) (UniProt Q96L34); details: Compound concentration 1.0 uM
# T1 sequence (whole entry): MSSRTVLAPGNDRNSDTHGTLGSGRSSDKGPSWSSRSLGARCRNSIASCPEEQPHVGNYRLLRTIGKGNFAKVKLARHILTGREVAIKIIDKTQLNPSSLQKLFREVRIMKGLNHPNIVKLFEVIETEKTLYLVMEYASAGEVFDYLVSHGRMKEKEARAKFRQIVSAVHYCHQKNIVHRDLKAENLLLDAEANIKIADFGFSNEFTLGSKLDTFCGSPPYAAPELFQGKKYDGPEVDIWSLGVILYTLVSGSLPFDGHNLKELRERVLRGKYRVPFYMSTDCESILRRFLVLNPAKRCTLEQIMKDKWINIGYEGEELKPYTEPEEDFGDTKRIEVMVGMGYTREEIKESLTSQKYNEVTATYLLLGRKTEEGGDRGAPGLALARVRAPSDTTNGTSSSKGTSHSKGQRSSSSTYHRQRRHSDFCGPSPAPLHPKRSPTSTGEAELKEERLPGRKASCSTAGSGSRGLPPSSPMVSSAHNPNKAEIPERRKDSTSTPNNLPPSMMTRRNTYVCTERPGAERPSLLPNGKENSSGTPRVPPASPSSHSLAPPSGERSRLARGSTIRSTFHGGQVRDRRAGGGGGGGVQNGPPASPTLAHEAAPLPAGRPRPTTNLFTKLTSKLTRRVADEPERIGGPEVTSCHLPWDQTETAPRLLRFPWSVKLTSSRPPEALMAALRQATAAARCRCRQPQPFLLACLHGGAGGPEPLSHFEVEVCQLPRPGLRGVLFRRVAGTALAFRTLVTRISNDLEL
# [6] = biological target: T2, Ephrin type-B receptor 3 (Homo sapiens) (UniProt P54753); details: Compound concentration 1.0 uM
# T2 sequence (whole entry): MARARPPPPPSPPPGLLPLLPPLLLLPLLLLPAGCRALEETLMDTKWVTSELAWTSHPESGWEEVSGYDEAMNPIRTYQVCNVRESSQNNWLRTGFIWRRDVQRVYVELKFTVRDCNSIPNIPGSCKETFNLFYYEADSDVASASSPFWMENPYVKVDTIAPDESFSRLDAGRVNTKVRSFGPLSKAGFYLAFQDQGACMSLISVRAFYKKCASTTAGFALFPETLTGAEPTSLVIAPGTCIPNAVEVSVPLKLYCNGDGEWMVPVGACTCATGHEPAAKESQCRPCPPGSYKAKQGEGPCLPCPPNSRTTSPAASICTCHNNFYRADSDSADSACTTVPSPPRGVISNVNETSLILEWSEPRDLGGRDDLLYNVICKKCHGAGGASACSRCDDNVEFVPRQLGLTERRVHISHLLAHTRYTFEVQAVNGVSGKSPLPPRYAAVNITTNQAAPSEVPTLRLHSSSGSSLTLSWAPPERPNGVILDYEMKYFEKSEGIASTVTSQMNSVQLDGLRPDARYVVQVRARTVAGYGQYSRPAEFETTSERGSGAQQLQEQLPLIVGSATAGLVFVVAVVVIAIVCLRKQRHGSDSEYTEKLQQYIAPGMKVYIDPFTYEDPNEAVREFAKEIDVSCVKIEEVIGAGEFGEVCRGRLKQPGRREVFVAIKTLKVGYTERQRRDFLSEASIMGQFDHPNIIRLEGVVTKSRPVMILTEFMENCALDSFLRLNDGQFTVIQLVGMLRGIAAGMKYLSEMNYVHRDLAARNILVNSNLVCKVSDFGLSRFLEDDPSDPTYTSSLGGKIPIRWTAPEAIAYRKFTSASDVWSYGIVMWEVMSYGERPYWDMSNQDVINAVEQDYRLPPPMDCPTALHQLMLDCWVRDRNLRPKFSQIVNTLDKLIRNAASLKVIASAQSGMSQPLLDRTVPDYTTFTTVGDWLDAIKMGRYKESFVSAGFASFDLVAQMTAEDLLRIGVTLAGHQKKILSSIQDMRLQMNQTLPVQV
# [7] = biological target: Insulin receptor (Homo sapiens) (UniProt P06213); details: Compound concentration 1.0 uM
# [8] = biological target: Protein kinase C alpha type (Homo sapiens) (UniProt P17252); details: Compound concentration 1.0 uM
# [9] = biological target: CDK3/cyclin E (Homo sapiens) (UniProt P24864+O96020+Q00526); details: Compound concentration 1.0 uM
# Sequence of CDK3/cyclin E (Homo sapiens) (O96020 whole entry, looked up): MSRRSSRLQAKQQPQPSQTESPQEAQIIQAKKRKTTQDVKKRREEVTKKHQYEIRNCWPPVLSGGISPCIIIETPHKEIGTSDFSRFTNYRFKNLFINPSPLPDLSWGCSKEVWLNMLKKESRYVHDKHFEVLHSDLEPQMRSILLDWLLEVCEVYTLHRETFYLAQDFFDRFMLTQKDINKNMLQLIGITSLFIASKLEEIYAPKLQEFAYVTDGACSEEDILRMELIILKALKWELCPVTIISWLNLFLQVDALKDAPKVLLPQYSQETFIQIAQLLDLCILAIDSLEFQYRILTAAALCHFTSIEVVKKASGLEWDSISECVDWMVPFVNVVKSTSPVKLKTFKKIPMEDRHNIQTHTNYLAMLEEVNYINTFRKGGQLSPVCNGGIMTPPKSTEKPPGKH
# Sequence of CDK3/cyclin E (Homo sapiens) (P24864 whole entry, looked up): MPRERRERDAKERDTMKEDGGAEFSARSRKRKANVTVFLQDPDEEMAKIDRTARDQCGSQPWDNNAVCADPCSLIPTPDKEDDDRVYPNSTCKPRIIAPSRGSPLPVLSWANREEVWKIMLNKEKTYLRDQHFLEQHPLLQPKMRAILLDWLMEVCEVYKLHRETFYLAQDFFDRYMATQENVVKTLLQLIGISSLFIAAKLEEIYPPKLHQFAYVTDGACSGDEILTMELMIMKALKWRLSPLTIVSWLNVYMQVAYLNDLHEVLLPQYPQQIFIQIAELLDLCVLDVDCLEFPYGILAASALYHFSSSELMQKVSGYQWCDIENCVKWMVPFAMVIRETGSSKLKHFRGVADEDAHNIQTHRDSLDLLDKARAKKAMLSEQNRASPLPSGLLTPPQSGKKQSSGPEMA
# Sequence of CDK3/cyclin E (Homo sapiens) (Q00526 whole entry, looked up): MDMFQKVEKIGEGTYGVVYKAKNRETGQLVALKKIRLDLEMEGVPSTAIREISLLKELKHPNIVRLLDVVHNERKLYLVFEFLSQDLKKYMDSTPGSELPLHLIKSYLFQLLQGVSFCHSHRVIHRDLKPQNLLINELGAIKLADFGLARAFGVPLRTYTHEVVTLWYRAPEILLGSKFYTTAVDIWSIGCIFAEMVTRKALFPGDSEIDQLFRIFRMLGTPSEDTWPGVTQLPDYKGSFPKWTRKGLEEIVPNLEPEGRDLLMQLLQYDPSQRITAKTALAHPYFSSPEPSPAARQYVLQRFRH
# [10] = biological target: T3, Serine/threonine-protein kinase Nek11 (Homo sapiens) (UniProt Q8NG66); details: Compound concentration 1.0 uM
# T3 sequence (whole entry): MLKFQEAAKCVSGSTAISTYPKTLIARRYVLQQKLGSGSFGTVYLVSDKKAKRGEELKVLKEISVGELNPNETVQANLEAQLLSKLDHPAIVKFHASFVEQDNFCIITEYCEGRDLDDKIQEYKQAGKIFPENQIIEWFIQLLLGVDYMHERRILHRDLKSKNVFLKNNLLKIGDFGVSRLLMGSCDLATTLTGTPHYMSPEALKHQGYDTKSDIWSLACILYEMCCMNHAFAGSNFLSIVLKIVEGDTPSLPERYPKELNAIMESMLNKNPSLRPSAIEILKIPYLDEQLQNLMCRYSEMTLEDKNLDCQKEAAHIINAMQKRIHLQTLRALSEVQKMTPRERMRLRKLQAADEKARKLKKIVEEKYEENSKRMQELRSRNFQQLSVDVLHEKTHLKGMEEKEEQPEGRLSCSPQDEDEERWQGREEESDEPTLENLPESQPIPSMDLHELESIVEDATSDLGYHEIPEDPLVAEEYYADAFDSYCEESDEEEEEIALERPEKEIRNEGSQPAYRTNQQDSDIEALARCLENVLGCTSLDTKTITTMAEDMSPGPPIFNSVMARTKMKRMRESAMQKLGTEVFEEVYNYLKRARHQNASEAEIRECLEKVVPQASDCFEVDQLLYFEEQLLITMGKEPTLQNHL
# [11] = biological target: Activin receptor type-1-like (Homo sapiens) (UniProt P37023); details: Compound concentration 1.0 uM
# Sequence of Activin receptor type-1-like (Homo sapiens) (P37023 whole entry): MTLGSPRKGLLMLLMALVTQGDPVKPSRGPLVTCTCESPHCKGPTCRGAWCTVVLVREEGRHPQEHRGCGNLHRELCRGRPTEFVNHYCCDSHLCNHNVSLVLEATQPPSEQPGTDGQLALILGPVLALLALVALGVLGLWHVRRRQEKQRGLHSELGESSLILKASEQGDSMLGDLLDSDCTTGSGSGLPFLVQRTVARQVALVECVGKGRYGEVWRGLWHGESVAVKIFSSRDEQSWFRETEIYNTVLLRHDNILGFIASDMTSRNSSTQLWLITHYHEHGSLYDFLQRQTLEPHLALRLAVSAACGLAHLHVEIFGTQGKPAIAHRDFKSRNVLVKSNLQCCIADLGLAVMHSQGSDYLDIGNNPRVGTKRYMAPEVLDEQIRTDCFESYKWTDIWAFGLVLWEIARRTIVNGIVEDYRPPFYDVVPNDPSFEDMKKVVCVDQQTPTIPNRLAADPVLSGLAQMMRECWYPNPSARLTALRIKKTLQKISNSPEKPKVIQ
# [12] = biological target: Calcium/calmodulin-dependent protein kinase type 1D (Homo sapiens) (UniProt Q8IU85); details: Compound concentration 1.0 uM
# Sequence of Calcium/calmodulin-dependent protein kinase type 1D (Homo sapiens) (Q8IU85 whole entry, looked up): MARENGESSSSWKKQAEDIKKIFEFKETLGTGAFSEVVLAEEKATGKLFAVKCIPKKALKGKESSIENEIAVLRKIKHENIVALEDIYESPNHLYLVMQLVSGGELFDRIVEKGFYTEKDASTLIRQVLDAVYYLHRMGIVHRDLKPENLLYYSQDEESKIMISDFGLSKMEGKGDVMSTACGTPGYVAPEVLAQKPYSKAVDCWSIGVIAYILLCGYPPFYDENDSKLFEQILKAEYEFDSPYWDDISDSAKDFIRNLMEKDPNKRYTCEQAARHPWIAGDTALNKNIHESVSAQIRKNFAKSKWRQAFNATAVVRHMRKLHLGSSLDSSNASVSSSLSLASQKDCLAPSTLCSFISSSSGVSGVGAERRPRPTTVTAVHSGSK
# Sequence of Sigma intracellular receptor 2 (Q5BJF2 whole entry): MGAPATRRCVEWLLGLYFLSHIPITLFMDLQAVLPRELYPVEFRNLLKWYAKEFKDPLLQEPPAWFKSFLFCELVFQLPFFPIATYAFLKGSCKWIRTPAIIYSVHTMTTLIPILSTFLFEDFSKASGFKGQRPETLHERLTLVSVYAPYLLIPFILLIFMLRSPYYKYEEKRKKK
Compound,inhibition [1] [%],Ki [2] [µM],% residual kinase activity [3] [%],% residual kinase activity [4] [%],% residual kinase activity [5] [%],% residual kinase activity [6] [%],% residual kinase activity [7] [%],% residual kinase activity [8] [%],% residual kinase activity [9] [%],% residual kinase activity [10] [%],% residual kinase activity [11] [%],% residual kinase activity [12] [%]
Cc1nc(C2CCN(C(=O)c3ccc(OC(F)(F)F)cc3N)CC2)c2ncc(N3CCN(C)CC3)cc2n1 [BAY-693],2.66,4.9,,,,,,,,,,
CN1CCN(c2cnc3c(C4CCN(C(=O)c5ccc(OC(F)(F)F)cc5N)CC4)ncnc3c2)CC1 [BAY-885],,,101,107,100,42,99,107,106,104,118,94
